In ChEMBL document CHEMBL1201861, “Genomics of Drug Sensitity in Cancer screening data, Wellcome Trust Sanger Institute”:

How the values were obtained:
Assay in all cases: cells
Format in all cases: functional, cell-based
Settings in all cases: Homo sapiens
SK-MEL-2 = tested on: SK-MEL-2;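 further: growth inhibition of human SK-MEL-2 cells measured with a cell viability assay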
Description: SANGER: Inhibition of human SK-MEL-2 cell growth in a cell viability assay.

MFM-223 = tested on: MFM-223
Description: SANGER: Inhibition of human MFM-223 cell growth in a cell viability assay.

COLO-800 = tested on: COLO-800;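 further: growth inhibition of COLO-800 cells, read out with a cell viability assay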
Description: SANGER: Inhibition of human COLO-800 cell growth in a cell viability assay.

A4-Fuk = tested on: A4-Fuk;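 further: growth inhibition of A4-Fuk cells, read out by a cell viability assay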
Description: SANGER: Inhibition of human A4-Fuk cell growth in a cell viability assay.

KARPAS-299 = tested on: KARPAS-299
Description: SANGER: Inhibition of human KARPAS-299 cell growth in a cell viability assay.

NCI-H2126 = tested on: NCI-H2126;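 further: growth inhibition of the cancer cell line, determined with a cell viability readout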
Description: SANGER: Inhibition of human NCI-H2126 cell growth in a cell viability assay.

LU-139 = tested on: LU-139
Description: SANGER: Inhibition of human LU-139 cell growth in a cell viability assay.

RXF 393 = tested on: RXF 393;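 further: growth inhibition of human RXF 393 cells, read out with a cell viability assay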
Description: SANGER: Inhibition of human RXF393 cell growth in a cell viability assay.

TGBC1TKB = tested on: TGBC1TKB;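 further: growth inhibition of TGBC1TKB cells, read out by a cell viability assay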
Description: SANGER: Inhibition of human TGBC1TKB cell growth in a cell viability assay.

IST-MEL1 = tested on: IST-MEL1;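 further: growth inhibition of the cell line, read out with a cell viability assay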
Description: SANGER: Inhibition of human IST-MEL1 cell growth in a cell viability assay.

NOS-1 = tested on: NOS-1;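 further: growth inhibition of the human NOS-1 cell line, read out with a cell viability assay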
Description: SANGER: Inhibition of human NOS-1 cell growth in a cell viability assay.

TE-1 = tested on: TE-1;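 further: growth inhibition of the human TE-1 cell line, read out with a cell viability assay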
Description: SANGER: Inhibition of human TE-1 cell growth in a cell viability assay.

KG-1 = tested on: KG-1;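 further: growth inhibition of KG-1 cells, read out by a cell viability assay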
Description: SANGER: Inhibition of human KG-1 cell growth in a cell viability assay.

HAL-01 = tested on: HAL-01;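 further: growth inhibition of human HAL-01 cells, read out with a cell viability assay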
Description: SANGER: Inhibition of human HAL-01 cell growth in a cell viability assay.

LS-513 = tested on: LS-513
Description: SANGER: Inhibition of human LS-513 cell growth in a cell viability assay.

ES5 = tested on: ES5;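 further: growth inhibition of human ES5 cells, read out by a cell viability assay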
Description: SANGER: Inhibition of human ES5 cell growth in a cell viability assay.

no-10 = tested on: no-10;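 further: growth inhibition of no-10 cells, read out with a cell viability assay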
Description: SANGER: Inhibition of human no-10 cell growth in a cell viability assay.

HT = tested on: HT
Description: SANGER: Inhibition of human HT cell growth in a cell viability assay.

SW684 = tested on: SW684;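 further: growth inhibition of human SW684 cells, measured by a cell viability assay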
Description: SANGER: Inhibition of human SW684 cell growth in a cell viability assay.

KGN = tested on: KGN;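 further: growth inhibition of KGN cells, read out with a cell viability assay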
Description: SANGER: Inhibition of human KGN cell growth in a cell viability assay.

HCC2218 = tested on: HCC2218;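 further: cell viability assay read-out, with IC50 given as the concentration that inhibits growth of the cell line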
Description: SANGER: Inhibition of human HCC2218 cell growth in a cell viability assay.

SW872 = tested on: SW872;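 further: growth inhibition of SW872 cells, read out by a viability assay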
Description: SANGER: Inhibition of human SW872 cell growth in a cell viability assay.

LB771-HNC = tested on: LB771-HNC;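 further: growth inhibition of LB771-HNC human cells, read out with a cell viability assay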
Description: SANGER: Inhibition of human LB771-HNC cell growth in a cell viability assay.

CTV-1 = tested on: CTV-1;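 further: growth inhibition of the cell line, read out with a cell viability assay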
Description: SANGER: Inhibition of human CTV-1 cell growth in a cell viability assay.

NOMO-1 = tested on: NOMO-1;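 further: growth inhibition of human NOMO-1 cells measured by a cell viability assay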
Description: SANGER: Inhibition of human NOMO-1 cell growth in a cell viability assay.

NCI-H446 = tested on: NCI-H446;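 further: growth inhibition of NCI-H446 cells determined by a cell viability assay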
Description: SANGER: Inhibition of human NCI-H446 cell growth in a cell viability assay.

TE-8 = tested on: TE-8;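 further: growth inhibition of TE-8 cells, measured with a cell viability readout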
Description: SANGER: Inhibition of human TE-8 cell growth in a cell viability assay.

BE-13 = tested on: BE-13;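 further: growth inhibition of human BE-13 cells, measured with a cell viability assay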
Description: SANGER: Inhibition of human BE-13 cell growth in a cell viability assay.

MFH-ino = tested on: MFH-ino;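 further: growth inhibition of human MFH-ino cells, read out by a cell viability assay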
Description: SANGER: Inhibition of human MFH-ino cell growth in a cell viability assay.

NCI-H69 = tested on: NCI-H69;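 further: growth inhibition of the cell line, read out with a cell viability assay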
Description: SANGER: Inhibition of human NCI-H69 cell growth in a cell viability assay.

TE-5 = tested on: TE-5;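 further: inhibition of cell growth, read out by a cell viability assay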
Description: SANGER: Inhibition of human TE-5 cell growth in a cell viability assay.

NB6 = tested on: NB6;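 further: growth inhibition of NB6 cells, read out by a cell viability assay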
Description: SANGER: Inhibition of human NB6 cell growth in a cell viability assay.

DU-4475 = tested on: DU-4475
Description: SANGER: Inhibition of human DU-4475 cell growth in a cell viability assay.

LXF-289 cell line = tested on: LXF-289 cell line
Description: SANGER: Inhibition of human LXF-289 cell growth in a cell viability assay.

ES7 = tested on: ES7;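 further: growth inhibition of cultured human ES7 cells, read out as cell viability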
Description: SANGER: Inhibition of human ES7 cell growth in a cell viability assay.

ACN = tested on: ACN;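 further: growth inhibition of the human ACN cell line, read out via cell viability testing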
Description: SANGER: Inhibition of human ACN cell growth in a cell viability assay.

CTB-1 = tested on: CTB-1
Description: SANGER: Inhibition of human CTB-1 cell growth in a cell viability assay.

PSN1 = tested on: PSN1;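 further: suppression of growth of human PSN1 cells, read out by a cell viability assay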
Description: SANGER: Inhibition of human PSN1 cell growth in a cell viability assay.

NKM-1 = tested on: NKM-1;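 further: growth inhibition of NKM-1 cells, read out with a cell viability assay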
Description: SANGER: Inhibition of human NKM-1 cell growth in a cell viability assay.

NCI-H1092 = tested on: NCI-H1092;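 further: cell growth inhibition measured with a cell viability assay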
Description: SANGER: Inhibition of human NCI-H1092 cell growth in a cell viability assay.

LB2241-RCC = tested on: LB2241-RCC;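 further: cell viability assay measuring how strongly the cultured human renal carcinoma line is prevented from growing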
Description: SANGER: Inhibition of human LB2241-RCC cell growth in a cell viability assay.

NCI-H226 = tested on: NCI-H226;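 further: cell viability read-out used to gauge growth inhibition of the cells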
Description: SANGER: Inhibition of human NCI-H226 cell growth in a cell viability assay.

NCI-H82 = tested on: NCI-H82;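 further: growth inhibition of NCI-H82 cells, measured with a cell viability readout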
Description: SANGER: Inhibition of human NCI-H82 cell growth in a cell viability assay.

SK-UT-1 = tested on: SK-UT-1;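 further: growth inhibition of SK-UT-1 cells, measured by a cell viability assay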
Description: SANGER: Inhibition of human SK-UT-1 cell growth in a cell viability assay.

SW 954 = tested on: SW 954;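 further: growth inhibition of SW954 human cancer cells, read out as cell viability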
Description: SANGER: Inhibition of human SW954 cell growth in a cell viability assay.

LOX IMVI = tested on: LOX IMVI
Description: SANGER: Inhibition of human LOXIMVI cell growth in a cell viability assay.

BV-173 = tested on: BV-173
Description: SANGER: Inhibition of human BV-173 cell growth in a cell viability assay.

A3-KAW = tested on: A3-KAW;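 further: growth inhibition of human A3-KAW cells, read out with a cell viability assay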
Description: SANGER: Inhibition of human A3-KAW cell growth in a cell viability assay.

ETK-1 = tested on: ETK-1;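 further: growth inhibition of human ETK-1 cells, read out with a cell viability assay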
Description: SANGER: Inhibition of human ETK-1 cell growth in a cell viability assay.

TE-9 = tested on: TE-9;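 further: cell growth inhibition, measured with a cell viability readout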
Description: SANGER: Inhibition of human TE-9 cell growth in a cell viability assay.

MPP-89 = tested on: MPP-89;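 further: growth inhibition of human MPP-89 cells, read out with a cell viability assay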
Description: SANGER: Inhibition of human MPP-89 cell growth in a cell viability assay.

DMS-79 = tested on: DMS-79;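 further: growth inhibition measured with a cell viability assay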
Description: SANGER: Inhibition of human DMS-79 cell growth in a cell viability assay.

CW-2 = tested on: CW-2;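 further: growth inhibition of CW-2 cells, read out by a cell viability assay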
Description: SANGER: Inhibition of human CW-2 cell growth in a cell viability assay.

K562 = tested on: K562
Description: SANGER: Inhibition of human K-562 cell growth in a cell viability assay.

VA-ES-BJ = tested on: VA-ES-BJ;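 further: growth inhibition of the VA-ES-BJ cell line, read out by a cell viability assay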
Description: SANGER: Inhibition of human VA-ES-BJ cell growth in a cell viability assay.

D-502MG = tested on: D-502MG
Description: SANGER: Inhibition of human D-502MG cell growth in a cell viability assay.

SCH = tested on: SCH;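 further: growth inhibition of human SCH cells, read out in a cell viability assay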
Description: SANGER: Inhibition of human SCH cell growth in a cell viability assay.

NCI-H510A = tested on: NCI-H510A;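 further: growth inhibition of NCI-H510A cells, read out with a cell viability assay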
Description: SANGER: Inhibition of human NCI-H510A cell growth in a cell viability assay.

EW-3 = tested on: EW-3;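 further: cell viability assay read-out, IC50 reflects inhibition of growth of the EW-3 cells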
Description: SANGER: Inhibition of human EW-3 cell growth in a cell viability assay.

LC-2-ad = tested on: LC-2-ad;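 further: growth inhibition of human LC-2-ad cells, read out with a cell viability assay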
Description: SANGER: Inhibition of human LC-2-ad cell growth in a cell viability assay.

COLO-824 = tested on: COLO-824
Description: SANGER: Inhibition of human COLO-824 cell growth in a cell viability assay.

BB49-HNC = tested on: BB49-HNC
Description: SANGER: Inhibition of human BB49-HNC cell growth in a cell viability assay.

OS-RC-2 = tested on: OS-RC-2
Description: SANGER: Inhibition of human OS-RC-2 cell growth in a cell viability assay.

DJM-1 = tested on: DJM-1
Description: SANGER: Inhibition of human DJM-1 cell growth in a cell viability assay.

COLO-829 = tested on: COLO-829
Description: SANGER: Inhibition of human COLO-829 cell growth in a cell viability assay.

## CCn1c(-c2nonc2N)nc2cnc(Oc3cccc(NC(=O)c4ccc(OCCN5CCOCC5)cc4)c3)cc21 [GSK-269962A]
SK-MEL-2
  IC50: > 2500 nM
MFM-223
  IC50: > 2500 nM
COLO-800
  IC50: > 2500 nM
A4-Fuk
  IC50: > 2500 nM
KARPAS-299
  IC50: > 2500 nM
NCI-H2126
  IC50: > 2500 nM
LU-139
  IC50: > 2500 nM
RXF 393
  IC50: 393 nM
TGBC1TKB
  IC50: > 2500 nM
IST-MEL1
  IC50: > 2500 nM
NOS-1
  IC50: > 2500 nM
TE-1
  IC50: > 2500 nM
KG-1
  IC50: > 2500 nM
HAL-01
  IC50: > 2500 nM
LS-513
  IC50: > 2500 nM
ES5
  IC50: > 2500 nM
no-10
  IC50: 668 nM
HT
  IC50: > 2500 nM
SW684
  IC50: > 2500 nM
KGN
  IC50: 567 nM
HCC2218
  IC50: > 2500 nM
SW872
  IC50: 887 nM
LB771-HNC
  IC50: > 2500 nM
CTV-1
  IC50: > 2500 nM
NOMO-1
  IC50: > 2500 nM
NCI-H446
  IC50: > 2500 nM
TE-8
  IC50: > 2500 nM
BE-13
  IC50: 141 nM
MFH-ino
  IC50: 644 nM
NCI-H69
  IC50: > 2500 nM
TE-5
  IC50: > 2500 nM
NB6
  IC50: 591 nM
DU-4475
  IC50: > 2500 nM
LXF-289 cell line
  IC50: > 2500 nM
ES7
  IC50: > 2500 nM
ACN
  IC50: > 2500 nM
CTB-1
  IC50: > 2500 nM
PSN1
  IC50: > 2500 nM
NKM-1
  IC50: > 2500 nM
NCI-H1092
  IC50: > 2500 nM
LB2241-RCC
  IC50: > 2500 nM
NCI-H226
  IC50: > 2500 nM
NCI-H82
  IC50: > 2500 nM
SK-UT-1
  IC50: > 2500 nM
SW 954
  IC50: > 2500 nM
LOX IMVI
  IC50: > 2500 nM
BV-173
  IC50: > 2500 nM
A3-KAW
  IC50: > 2500 nM
ETK-1
  IC50: > 2500 nM
TE-9
  IC50: > 2500 nM
MPP-89
  IC50: 1260 nM
DMS-79
  IC50: > 2500 nM
CW-2
  IC50: > 2500 nM
K562
  IC50: > 2500 nM
VA-ES-BJ
  IC50: > 2500 nM
D-502MG
  IC50: > 2500 nM
SCH
  IC50: > 2500 nM
NCI-H510A
  IC50: > 2500 nM
EW-3
  IC50: > 2500 nM
LC-2-ad
  IC50: > 2500 nM
COLO-824
  IC50: > 2500 nM
BB49-HNC
  IC50: 7.89 nM
OS-RC-2
  IC50: > 2500 nM
DJM-1
  IC50: > 2500 nM
COLO-829
  IC50: > 2500 nM

## Cc1ccc(NC(=O)c2cccc(C(C)(C)C#N)c2)cc1Nc1ccc2ncn(C)c(=O)c2c1
SK-MEL-2
  IC50: 3220 nM
MFM-223
  IC50: > 4000 nM
COLO-800
  IC50: > 4000 nM
A4-Fuk
  IC50: 484 nM
KARPAS-299
  IC50: > 4000 nM
NCI-H2126
  IC50: > 4000 nM
LU-139
  IC50: > 4000 nM
RXF 393
  IC50: > 4000 nM
TGBC1TKB
  IC50: > 4000 nM
IST-MEL1
  IC50: 204 nM
NOS-1
  IC50: 92.7 nM
TE-1
  IC50: > 4000 nM
KG-1
  IC50: 3810 nM
HAL-01
  IC50: > 4000 nM
LS-513
  IC50: 74.1 nM
ES5
  IC50: > 4000 nM
no-10
  IC50: > 4000 nM
HT
  IC50: > 4000 nM
SW684
  IC50: > 4000 nM
KGN
  IC50: > 4000 nM
HCC2218
  IC50: > 4000 nM
SW872
  IC50: 96.5 nM
LB771-HNC
  IC50: > 4000 nM
CTV-1
  IC50: 1200 nM
NOMO-1
  IC50: 1210 nM
NCI-H446
  IC50: > 4000 nM
TE-8
  IC50: > 4000 nM
BE-13
  IC50: 806 nM
MFH-ino
  IC50: > 4000 nM
NCI-H69
  IC50: > 4000 nM
TE-5
  IC50: > 4000 nM
NB6
  IC50: > 4000 nM
DU-4475
  IC50: 10.2 nM
LXF-289 cell line
  IC50: > 4000 nM
ES7
  IC50: > 4000 nM
ACN
  IC50: < 15.6 nM
CTB-1
  IC50: > 4000 nM
PSN1
  IC50: 27.4 nM
NKM-1
  IC50: 735 nM
NCI-H1092
  IC50: > 4000 nM
LB2241-RCC
  IC50: > 4000 nM
NCI-H226
  IC50: > 4000 nM
NCI-H82
  IC50: > 4000 nM
SK-UT-1
  IC50: > 4000 nM
SW 954
  IC50: > 4000 nM
LOX IMVI
  IC50: > 4000 nM
BV-173
  IC50: 692 nM
A3-KAW
  IC50: > 4000 nM
ETK-1
  IC50: > 4000 nM
TE-9
  IC50: > 4000 nM
MPP-89
  IC50: > 4000 nM
DMS-79
  IC50: > 4000 nM
CW-2
  IC50: > 4000 nM
K562
  IC50: 667 nM
VA-ES-BJ
  IC50: > 4000 nM
D-502MG
  IC50: 2260 nM
SCH
  IC50: > 4000 nM
NCI-H510A
  IC50: > 4000 nM
EW-3
  IC50: > 4000 nM
LC-2-ad
  IC50: > 4000 nM
COLO-824
  IC50: > 4000 nM
BB49-HNC
  IC50: 352 nM
OS-RC-2
  IC50: > 4000 nM
DJM-1
  IC50: > 4000 nM
COLO-829
  IC50: 25.6 nM
